Laboratory results as given in patent publication US20180273503A1, “NOVEL ANGIOTENSIN CONVERTING ENZYME INHIBITOR” (RIKEN, priority 2015, published 2018).

Molecular target: T1, angiotensin converting enzyme (ACE) (Homo sapiens, UniProt P12821)
T1 construct: purchased Dojindo Laboratories A502
Test: ACE inhibitory activity assay (ACE Kit-WST, A502, Dojindo Laboratories)
Assay type: biochemical
Conditions: for IC50: 3HB-GGG substrate, absorbance 450 nm, N.D. = ACE inhibitory activity was not detected in the test, read-out: IC50 concerning ACE activity
Excerpt: ACE inhibitory activity can be quantitatively evaluated with the use of, for example, a commercially available kit for ACE inhibitory activity assay. […] For example, ACE inhibitory activity of a target sample (e.g., a compound) can be evaluated with the use of a commercially available kit for ACE inhibitory activity assay (ACE Kit-WST, A502, Dojindo Laboratories) in the manner described below. In principle, such kit enzymatically detects 3-hydroxybutyric acid (3HB) cleaved from 3-hydroxybutyryl-glycyl-glycyl-glycine (3HB-GGG) by ACE activity. In accordance with the instructions of the kit, a sample solution containing a test compound at a given concentration is prepared in a reaction vessel, and a control solution is prepared with the addition of the same volume of water instead of the sample solution in another reaction vessel. An enzyme reaction solution is added to each reaction vessel, and the reaction is then allowed to proceed, respectively. As a blank sample, a solution prepared with the addition of the same volume of water instead of the enzyme solution is subjected to the same treatment. The absorbance (450 nm) of the chromogenic indicator used in the enzymatic method generated together with 3HB cleaved from 3HB-GGG by ACE activity is measured. On the basis of the values measured for the sample, the control sample, and the blank sample, ACE inhibitory activity of each sample is determined using the formula shown below. Alternatively, ACE inhibitory activity of the target sample can be evaluated in the manner described below. A substrate peptide that is a mimic of a C-terminal region of angiotensin I (e.g., hippuryl-histidyl-leucine (HHL)) and a sample are mixed with each other in an appropriate buffer solution. ACE is added to the resulting mixture and an enzymatic reaction is performed under appropriate conditions (e.g., 37° C. and pH 8.3) for a given period of time. After the enzymatic reaction is terminated, a product generated from the substrate peptide (e.g., hippuric acid in the case of HHL) is quantitatively measured via analytical means, such as absorbance measurement, immunoanalysis such as ELISA or RIA, or chromatography analysis such as HPLC or LC-MS. A sample-free control and an ACE-free blank are subjected to the same experiment. On the basis of the values measured for the sample, the control sample, and the blank sample, ACE inhibitory activity of each sample is determined using the formula shown below. […]
In principle, such kit enzymatically detects 3-hydroxybutyric acid (3HB) cleaved from 3-hydroxybutyryl-glycyl-glycyl-glycine (3HB-GGG) by ACE activity. […] The absorbance (450 nm) of the chromogenic indicator used in the enzymatic method generated together with 3HB cleaved from 3HB-GGG by ACE activity was measured.

T1 sequence (P12821 30-1306, species assumed): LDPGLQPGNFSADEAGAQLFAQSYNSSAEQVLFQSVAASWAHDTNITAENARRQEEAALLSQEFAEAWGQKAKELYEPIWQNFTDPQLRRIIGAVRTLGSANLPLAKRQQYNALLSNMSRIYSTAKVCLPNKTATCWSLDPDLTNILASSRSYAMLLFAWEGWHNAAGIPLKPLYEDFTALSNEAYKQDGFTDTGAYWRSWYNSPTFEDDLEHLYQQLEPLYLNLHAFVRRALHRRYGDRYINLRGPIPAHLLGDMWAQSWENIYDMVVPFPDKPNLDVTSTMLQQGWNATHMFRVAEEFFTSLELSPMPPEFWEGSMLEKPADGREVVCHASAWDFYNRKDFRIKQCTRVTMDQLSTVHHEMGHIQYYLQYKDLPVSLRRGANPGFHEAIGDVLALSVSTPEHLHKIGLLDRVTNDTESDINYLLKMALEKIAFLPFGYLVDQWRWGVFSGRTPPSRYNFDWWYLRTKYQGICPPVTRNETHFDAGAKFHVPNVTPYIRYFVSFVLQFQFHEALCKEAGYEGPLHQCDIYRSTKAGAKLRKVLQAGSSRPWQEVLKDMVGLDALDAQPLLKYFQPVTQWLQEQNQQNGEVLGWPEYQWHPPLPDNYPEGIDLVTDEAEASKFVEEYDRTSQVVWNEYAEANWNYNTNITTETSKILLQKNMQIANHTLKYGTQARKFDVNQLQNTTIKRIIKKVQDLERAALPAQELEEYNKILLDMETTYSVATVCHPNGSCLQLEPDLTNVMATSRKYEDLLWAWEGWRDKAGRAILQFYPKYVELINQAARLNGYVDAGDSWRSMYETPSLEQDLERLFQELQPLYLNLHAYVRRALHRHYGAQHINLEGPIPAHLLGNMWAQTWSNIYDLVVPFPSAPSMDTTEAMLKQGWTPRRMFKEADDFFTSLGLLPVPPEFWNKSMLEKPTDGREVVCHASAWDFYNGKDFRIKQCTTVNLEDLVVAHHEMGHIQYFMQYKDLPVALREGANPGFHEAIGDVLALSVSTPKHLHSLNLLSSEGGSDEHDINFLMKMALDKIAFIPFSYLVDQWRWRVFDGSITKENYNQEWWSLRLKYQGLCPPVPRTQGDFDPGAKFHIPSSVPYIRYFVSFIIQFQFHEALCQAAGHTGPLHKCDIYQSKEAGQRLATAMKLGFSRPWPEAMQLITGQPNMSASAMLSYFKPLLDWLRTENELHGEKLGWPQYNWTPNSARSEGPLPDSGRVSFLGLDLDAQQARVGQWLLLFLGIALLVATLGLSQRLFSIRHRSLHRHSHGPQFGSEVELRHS

IC50 | concentration at which ACE inhibitory activity is exerted (from the dose-response data) | SMILES
113 µM | exceeding 1 μM | N=C(N)NCCC[C@H](NC(=O)C1CSSC1)C(=O)O [Asparaptine, asparaptine]
18.7 ± 0.54 µM | – | N[C@@H](CCN[C@@H](CCN1CC[C@H]1C(=O)O)C(=O)O)C(=O)O [Nicotianamine, nicotianamine]
14.5 ± 5.3 µM | – | O=C(O)CCC(=O)N1CCC[C@H]1C(=O)O [N-Succinyl-L-proline, N-succinyl-L-proline]
